What was measured:
[1] = biological target: human CMV DNA polymerase UL54 (Human cytomegalovirus (strain AD169) (HHV-5) (Human herpesvirus 5), UniProt P08546); experiment: CMV polymerase biochemical assay (molecular beacon-based)
Procedure, shortened: (§1)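 Readout was beacon fluorescence (ex 480, em 535 nm), used to derive IC50. Each dNTP was at 1.25 uM, with 200 nM primer and 100 nM beacon, after a 30-min RT inhibitor preincubation. Enzyme was 625 pM for HSV UL30 (20 min RT reaction) or 100 pM for CMV UL54 (60 min RT), both sf9-expressed MBP fusions, in pH 7.5 Tris buffer with MgCl2.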

[2] = biological target: human HSV DNA polymerase UL30 (Human herpesvirus 1 (strain 17) (HHV-1) (Human herpes simplex virus 1), UniProt P04293); experiment: HSV polymerase biochemical assay (molecular beacon-based)
Procedure, shortened: as §1

[3] = test system: Luciferase-encoding HCMV, AD169 strain; experiment: CMV Luciferase assay (cellular herpesvirus replication); type: cell-based; conditions: Human betaherpesvirus 5, AD169, read-out: CMV-Luc Cellular EC50
Procedure, shortened: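 Neonatal human dermal fibroblasts were pretreated 1 h with compound (final 0.0159–50 μM or 0.00318–10 μM, 0.5% DMSO), then infected at MOI 1 with AD169 carrying pp28-promoter luciferase. After 72 h at 37 °C, Renilla-Glo luminescence normalized to no-virus and virus-only controls; EC50 by 4-parameter logistic model.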

Compound | IC50 [1] [µM] | IC50 [2] [µM] | EC50 [3] [µM]
O=C(NCc1ccc(Cl)cc1)c1ccc2n(c1=O)CCN(CC1(N3CCOC3=O)CC1)C2=O [Example 89-1, N-(4-chlorobenzyl)-1,6-dioxo-2-((1-(2-oxooxazolidin-3-yl)cyclopropyl)methyl)-2,3,4,6-tetrahydro-1H-pyrido[1,2-a]pyrazine-7-carboxamide] | 0.0793 | 1.26 | 4.9
O=C(NCc1ccc(Cl)cc1)c1ccc2n(c1=O)CCN(CC1(S(=O)(=O)CC3(C(F)(F)F)CC3)CC1)C2=O [Example 104-1] | 0.0186 | 0.185 | 0.639
COC1(CN2CCn3c(ccc(C(=O)NCc4ccc(Cl)cc4)c3=O)C2=O)CC1 [Example 171, N-(4-chlorobenzyl)-2-((1-methoxycyclopropyl)methyl)-1,6-dioxo-1,3,4,6-tetrahydro-2H-pyrido[1,2-a]pyrazine-7-carboxamide] | 0.0729 | 2.8 | 0.637
CS(=O)(=O)N1CC(CN2CCn3c(ccc(C(=O)NCc4ccc(Cl)cc4)c3=O)C2=O)C1 [Example 65] | 0.614 | 11.5 | 15.1
CS(=O)(=O)NC1(CN2CCn3c(ccc(C(=O)NCc4ccc(Cl)cc4)c3=O)C2=O)CC1 [Example 198] | 0.0372 | 1.5 | 1.68
CC1(CS(=O)(=O)C2(CN3CCn4c(ccc(C(=O)NCc5ccc(C#N)cc5)c4=O)C3=O)CC2)COC1 [Example 103-2] | 0.0011 | 0.108 | 1.27
N#Cc1ccc(CNC(=O)c2ccc3n(c2=O)CCN(CC2(S(=O)(=O)CCCO)CC2)C3=O)cc1 [Example 24] | 0.0047 | 0.168 | 0.832
CN(C1(CN2CCn3c(ccc(C(=O)NCc4ccc(Cl)cc4)c3=O)C2=O)CC1)S(C)(=O)=O [Example 174] | 0.0643 | 2.68 | 4.2
N#Cc1ccc(CNC(=O)c2ccc3n(c2=O)CCN(CC2(S(=O)(=O)N4CC(F)(F)C4)CC2)C3=O)cc1F [Example 84-2] | 0.0028 | 0.0806 | 0.0548
CC(C)(C(N)=O)S(=O)(=O)C1(CN2CCn3c(ccc(C(=O)NCc4ccc(Cl)cc4)c3=O)C2=O)CC1 [Example 177, 2-((1-((1-amino-2-methyl-1-oxopropan-2-yl)sulfonyl)cyclopropyl)methyl)-N-(4-chlorobenzyl)-1,6-dioxo-1,3,4,6-tetrahydro-2H-pyrido[1,2-a]pyrazine-7-carboxamide] | 0.0015 | 0.0181 | 0.0124
CC(C)(CN)S(=O)(=O)C1(CN2CCn3c(ccc(C(=O)NCc4ccc(Cl)cc4)c3=O)C2=O)CC1 [Example 181, 2-((1-((1-amino-2-methylpropan-2-yl)sulfonyl)cyclopropyl)methyl)-N-(4-chlorobenzyl)-1,6-dioxo-1,3,4,6-tetrahydro-2H-pyrido[1,2-a]pyrazine-7-carboxamide] | 0.0011 | 0.0374 | 0.0051
CN(C(C)(C)C)S(=O)(=O)C1(CN2CCn3c(ccc(C(=O)NCc4ccc(C#N)cc4)c3=O)C2=O)CC1 [Example 75-1] | 0.0011 | 0.0459 | 0.0356
N#Cc1ccc(CNC(=O)c2ccc3n(c2=O)CCN(CC2(S(=O)(=O)C4(O)CC4)CC2)C3=O)cc1 [Example 196, N-(4-cyanobenzyl)-2-((1-((1-hydroxycyclopropyl)sulfonyl)cyclopropyl)methyl)-1,6-dioxo-1,3,4,6-tetrahydro-2H-pyrido[1,2-a]pyrazine-7-carboxamide] | 0.0077 | 0.205 | 0.509
CN(CCN1CCn2c(c(C3CC3)cc(C(=O)NCc3ccc(Cl)cc3)c2=O)C1=O)S(C)(=O)=O [Example 128, N-(4-chlorobenzyl)-9-cyclopropyl-2-(2-(N-methylmethylsulfonamido)ethyl)-1,6-dioxo-1,3,4,6-tetrahydro-2H-pyrido[1,2-a]pyrazine-7-carboxamide] | 0.153 | 2.56 | 2.38
N#Cc1ccc(CNC(=O)c2ccc3n(c2=O)CCN(CC2(S(=O)(=O)C4CC4(F)F)CC2)C3=O)cc1 (stereo not drawn) [Example 98-1] | 0.0015 | 0.0575 | 0.0652
CS(=O)(=O)CCN1CCn2c(c(Br)cc(C(=O)NCc3ccc(Cl)cc3)c2=O)C1=O [Example 117, 9-bromo-N-(4-chlorobenzyl)-2-(2-(methylsulfonyl)ethyl)-1,6-dioxo-1,3,4,6-tetrahydro-2H-pyrido[1,2-a]pyrazine-7-carboxamide] | 0.285 | 0.577 | 1.44
O=C(NCc1ccc(Cl)cc1)c1cc(CF)c2n(c1=O)CCN(CCN1CCCS1(=O)=O)C2=O [Example 141] | 0.0728 | 0.328 | 1.65
Cc1cc(C(=O)NCc2ccc(Cl)cc2)c(=O)n2c1C(=O)N(CCN(C)S(C)(=O)=O)CC2 [Example 148, N-(4-chlorobenzyl)-9-methyl-2-(2-(N-methylmethylsulfonamido)ethyl)-1,6-dioxo-1,3,4,6-tetrahydro-2H-pyrido[1,2-a]pyrazine-7-carboxamide] | 0.181 | 1.51 | 1.66
COCCN1CCn2c(ccc(C(=O)NCc3ccc(Cl)cc3)c2=O)C1=O [Example 55] | 0.708 | 11.5 | 6.71
